Where no end group is shown, it is not given here.
Experiments:
PSMα3 fibrils = PSMα3 fibrils (Staphylococcus aureus, UniProt A9JX07); test: LC-MS degradation of amoxicillin and penicillin G with PSMα3 fibrils or buffer; type: biochemical; settings: for Degraded Penicillin G (PSMa3) (percentage of LC peaks, hydrolyzed product) / Penicillin G (PSMa3) (percentage of LC peaks, parent compound) / Degraded Penicillin G (percentage of LC peaks, hydrolyzed product) / Penicillin G (percentage of LC peaks, parent compound): Hepes 50 mM pH 7.4, penicillin G 40 µM, LC-MS; for Degraded Penicillin G (percentage of LC peaks, hydrolyzed product) / Penicillin G (percentage of LC peaks, parent compound): buffer control
PSMα3 fibrils, sequence (A9JX07 whole entry, looked up): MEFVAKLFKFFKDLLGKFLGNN
Experimental: Amoxicillin or Penicillin solutions were dissolved in Hepes buffer (50 mM, pH 7.4) in concentration of 50 µM. PSMα3 solution in concentration of 1.54 mM was dissolved in DIW and Hepes buffer was added to the final concentration of 50 mM. The antibiotics’ solutions and preincubated PSMα3 solutions were mixed to final PSMα3 […] 180 µL organic solvent to stop the reaction (acetonitrile for Amoxicillin, methanol in the case of Penicillin). The samples were collected and injected sequentially into the LC-MS analysis.
Waters ACQUITY UPLC I-Class PLUS System coupled with high-resolution Thermo Orbitrap Exploris 240 mass-spectrometer were used for analysis of Amoxicillin and Penicillin-G over time. 1 µL of each sample was injected into the reverse-phase Acquity UPLC BEH C18 1.7 µm, 2.1 × 50 mm column (Waters) and run under a gradient program (Table S2 for Amoxicillin, Table S3 for Penicillin-G). The samples were ionized using soft electrospray ionization in positive mode and detected in a full scan mode in range from 60 to 900 m/z with a resolution of 240,000 Full Width at Half Maximum. MS was tuned according to the manufacture recommendations. Relative abundance of the intact/degraded compounds was calculated by peak area of the extracted ion chromatogram: for Amoxicillin 366.1–366.12, and degraded-Amoxicillin 384.1–384.13 m/z, Penicillin-G 335.1–335.12, for degraded-Penicillin-G 353.1–353.12, for (Figs. S13 and S14, respectively).

[1] = Nitrocefin hydrolysis kinetics (absorbance of degraded nitrocefin at 480 nm; initial rates V0, Michaelis-Menten fit); type: biochemical; settings: peptide 170 µM; for nitrocefin substrate degradation after two hours: initial nitrocefin 107 µM (Fig. 4b)
Experimental: Nitrocefin, a β-lactam widely used as a surrogate substrate of Penicillin in β-lactamase activity assay, was used as a substrate. NC degradation was monitored for 2 h. Nitrocefin stock solution was dissolved in acetonitrile (20 mM) and then diluted with Hepes buffer (50 mM, pH 7.4) to nitrocefin concentration of 360 µM (further dilutions to lower concentrations were made with the 360 µM NC stock). All nitrocefin samples were kept on ice in cold conditions and any further dilution or mixing was performed in ice-cold conditions to avoid self-hydrolysis background reaction. […] Immediately after mixing the samples, the plate was transferred to 20̊ °C pre-cooled plate reader (Multiskan GO, Thermo Scientific, Waltham, MA) and shaken slowly for 10 s. Then, the absorbance of degraded nitrocefin was measured for 2 h at interval of 20 s at λ = 480 nm. Initial production rates (V0) were calculated by slope of the initial linear range of degraded-nitrocefin production at the first 15 min. The reported results are and average of at least five separate measurements (the exact number of repeats, N, is reported next to the values). Each experiment also included blank samples of nitrocefin substrate diluted with buffer instead of PSMα. […] The initial rate calculations were performed while also subtracting the self-degradation of the substrate, to ensure that this product absorbance is a result of PSMα presence.
The initial rates of degraded-nitrocefin production were calculated from the slopes of the first 15 min of measurement as reported above. The initial rates (V0) were fitted using non-linear regression applied with the solver function in excel, either to Michalis–Menten equation V=Vmax.[S]/(KM+S) Where Vmax. Stands for maximal reaction rate, KM stands for Michalis–Menten constant, [S] stands for the substrate molar concentration. Each initial rate value was presented as average ± SEM. The kinetic parameters were calculated by fitting the data to MM model using non-linear regression, and the confidence intervals for each parameter were calculated accordingly.

CC1(C)S[C@@H]2[C@H](NC(=O)Cc3ccccc3)C(=O)N2[C@H]1C(=O)O [Penicillin G]
Degraded Penicillin G (PSMa3) (percentage of LC peaks, hydrolyzed product) (PSMα3 fibrils; PSMα3 fibrils 308 µM, 0h): 14.1576% | Penicillin G (PSMa3) (percentage of LC peaks, parent compound) (PSMα3 fibrils; PSMα3 fibrils 308 µM, 0h): 85.8424% | Degraded Penicillin G (PSMa3) (percentage of LC peaks, hydrolyzed product) (PSMα3 fibrils; PSMα3 fibrils 308 µM, 2h): 11.4487% | Penicillin G (PSMa3) (percentage of LC peaks, parent compound) (PSMα3 fibrils; PSMα3 fibrils 308 µM, 2h): 88.5513% | Degraded Penicillin G (PSMa3) (percentage of LC peaks, hydrolyzed product) (PSMα3 fibrils; PSMα3 fibrils 308 µM, 4h): 13.5281% | Penicillin G (PSMa3) (percentage of LC peaks, parent compound) (PSMα3 fibrils; PSMα3 fibrils 308 µM, 4h): 86.4719% | Degraded Penicillin G (PSMa3) (percentage of LC peaks, hydrolyzed product) (PSMα3 fibrils; PSMα3 fibrils 308 µM, 8h): 13.7177% | Penicillin G (PSMa3) (percentage of LC peaks, parent compound) (PSMα3 fibrils; PSMα3 fibrils 308 µM, 8h): 86.2823% | Degraded Penicillin G (PSMa3) (percentage of LC peaks, hydrolyzed product) (PSMα3 fibrils; PSMα3 fibrils 308 µM, 12h): 18.21% | Penicillin G (PSMa3) (percentage of LC peaks, parent compound) (PSMα3 fibrils; PSMα3 fibrils 308 µM, 12h): 81.79% | Degraded Penicillin G (PSMa3) (percentage of LC peaks, hydrolyzed product) (PSMα3 fibrils; PSMα3 fibrils 308 µM, 24h): 37.9475% | Penicillin G (PSMa3) (percentage of LC peaks, parent compound) (PSMα3 fibrils; PSMα3 fibrils 308 µM, 24h): 62.0525% | Degraded Penicillin G (PSMa3) (percentage of LC peaks, hydrolyzed product) (PSMα3 fibrils; PSMα3 fibrils 308 µM, 48h): 86.3947% | Penicillin G (PSMa3) (percentage of LC peaks, parent compound) (PSMα3 fibrils; PSMα3 fibrils 308 µM, 48h): 13.6053% | Degraded Penicillin G (PSMa3) (percentage of LC peaks, hydrolyzed product) (PSMα3 fibrils; PSMα3 fibrils 308 µM, 60h): 96.085% | Penicillin G (PSMa3) (percentage of LC peaks, parent compound) (PSMα3 fibrils; PSMα3 fibrils 308 µM, 60h): 3.915% | Degraded Penicillin G (PSMa3) (percentage of LC peaks, hydrolyzed product) (PSMα3 fibrils; PSMα3 fibrils 308 µM, 72h): 99.5055% | Penicillin G (PSMa3) (percentage of LC peaks, parent compound) (PSMα3 fibrils; PSMα3 fibrils 308 µM, 72h): 0.4945% | hydrolysis by PSMα3 fibrils versus spontaneous degradation (PSMα3 fibrils; antibiotic 40 µM, PSMα3 fibrils 308 µM, Hepes 50 mM pH 7.4, LC-MS (Fig. 6)): significantly higher extent compared to the spontaneous degradation | Degraded Penicillin G (percentage of LC peaks, hydrolyzed product) (PSMα3 fibrils; 0h): 11.7847% | Penicillin G (percentage of LC peaks, parent compound) (PSMα3 fibrils; 0h): 88.2153% | Degraded Penicillin G (percentage of LC peaks, hydrolyzed product) (PSMα3 fibrils; 2h): 11.7612% | Penicillin G (percentage of LC peaks, parent compound) (PSMα3 fibrils; 2h): 88.2388% | Degraded Penicillin G (percentage of LC peaks, hydrolyzed product) (PSMα3 fibrils; 4h): 11.6984% | Penicillin G (percentage of LC peaks, parent compound) (PSMα3 fibrils; 4h): 88.3016% | Degraded Penicillin G (percentage of LC peaks, hydrolyzed product) (PSMα3 fibrils; 8h): 11.6907% | Penicillin G (percentage of LC peaks, parent compound) (PSMα3 fibrils; 8h): 88.3093% | Degraded Penicillin G (percentage of LC peaks, hydrolyzed product) (PSMα3 fibrils; 12h): 15.4738% | Penicillin G (percentage of LC peaks, parent compound) (PSMα3 fibrils; 12h): 84.5262% | Degraded Penicillin G (percentage of LC peaks, hydrolyzed product) (PSMα3 fibrils; 24h): 23.4015% | Penicillin G (percentage of LC peaks, parent compound) (PSMα3 fibrils; 24h): 76.5985% | Degraded Penicillin G (percentage of LC peaks, hydrolyzed product) (PSMα3 fibrils; 48h): 37.4339% | Penicillin G (percentage of LC peaks, parent compound) (PSMα3 fibrils; 48h): 62.5661% | Degraded Penicillin G (percentage of LC peaks, hydrolyzed product) (PSMα3 fibrils; 60h): 42.5642% | Penicillin G (percentage of LC peaks, parent compound) (PSMα3 fibrils; 60h): 57.4358% | Degraded Penicillin G (percentage of LC peaks, hydrolyzed product) (PSMα3 fibrils; 72h): 42.8604% | Penicillin G (percentage of LC peaks, parent compound) (PSMα3 fibrils; 72h): 57.1396%

CSCC[C@H](N)C(=O)N[C@@H](CCC(=O)O)C(=O)N[C@@H](Cc1ccccc1)C(=O)N[C@H](C(=O)N[C@@H](C)C(=O)N[C@@H](CCCCN)C(=O)N[C@@H](CC(C)C)C(=O)N[C@@H](Cc1ccccc1)C(=O)N[C@@H](CCCCN)C(=O)N[C@@H](Cc1ccccc1)C(=O)N[C@@H](Cc1ccccc1)C(=O)N[C@@H](CCCCN)C(=O)N[C@@H](CC(=O)O)C(=O)N[C@@H](CC(C)C)C(=O)N[C@@H](CC(C)C)C(=O)NCC(=O)N[C@@H](C)C(=O)N[C@@H](Cc1ccccc1)C(=O)N[C@@H](CC(C)C)C(=O)NCC(=O)N[C@@H](CC(N)=O)C(=O)N[C@@H](CC(N)=O)C(=O)O)C(C)C [α3-K17A]
nitrocefin substrate degradation after two hours [1]: minimal degradation

CSCC[C@H](NC(C)=O)C(=O)N[C@@H](CCC(=O)O)C(=O)N[C@@H](Cc1ccccc1)C(=O)N[C@H](C(=O)N[C@@H](C)C(=O)N[C@@H](CCCCN)C(=O)N[C@@H](CC(C)C)C(=O)N[C@@H](Cc1ccccc1)C(=O)N[C@@H](CCCCN)C(=O)N[C@@H](Cc1ccccc1)C(=O)N[C@@H](Cc1ccccc1)C(=O)N[C@@H](CCCCN)C(=O)N[C@@H](CC(=O)O)C(=O)N[C@@H](CC(C)C)C(=O)N[C@@H](CC(C)C)C(=O)NCC(=O)N[C@@H](CCCCN)C(=O)N[C@@H](Cc1ccccc1)C(=O)N[C@@H](CC(C)C)C(=O)NCC(=O)N[C@@H](CC(N)=O)C(=O)N[C@@H](CC(N)=O)C(=O)O)C(C)C [α3-N.Ac.]
nitrocefin substrate degradation after two hours [1]: minimal degradation

MEFVAALFKFFKDLLGKFLGNN [α3-K6A]
nitrocefin substrate degradation after two hours [1]: minimal degradation

MEFVAKLFAFFKDLLGKFLGNN [α3-K9A]
nitrocefin substrate degradation after two hours [1]: minimal degradation

MEFVAKLFKFFADLLGKFLGNN [α3-K12A]
nitrocefin substrate degradation after two hours [1]: 70%

MEFVAKLFKPFKDLLGKFLGNN [α3-F10P]
initial rate of nitrocefin degradation reaction (V0) ([1]; initial nitrocefin 107 µM, Hepes 50 mM pH 7.4, 20 °C, first 15 min (Fig. 3f)): lower than 15 µM/h

— article PMC10713593, “Staphylococcus aureus functional amyloids catalyze degradation of β-lactam antibiotics” (Nature Communications, 2023)
